The text below walks through data of patent publication US12479847B2 (DANA-FARBER CANCER INSTITUTE, INC., priority 2019, dated 2025).

Where only a bound is given, the exact number is not on record here.

Chain of human LRRK2 kinase (Q5S007 whole entry): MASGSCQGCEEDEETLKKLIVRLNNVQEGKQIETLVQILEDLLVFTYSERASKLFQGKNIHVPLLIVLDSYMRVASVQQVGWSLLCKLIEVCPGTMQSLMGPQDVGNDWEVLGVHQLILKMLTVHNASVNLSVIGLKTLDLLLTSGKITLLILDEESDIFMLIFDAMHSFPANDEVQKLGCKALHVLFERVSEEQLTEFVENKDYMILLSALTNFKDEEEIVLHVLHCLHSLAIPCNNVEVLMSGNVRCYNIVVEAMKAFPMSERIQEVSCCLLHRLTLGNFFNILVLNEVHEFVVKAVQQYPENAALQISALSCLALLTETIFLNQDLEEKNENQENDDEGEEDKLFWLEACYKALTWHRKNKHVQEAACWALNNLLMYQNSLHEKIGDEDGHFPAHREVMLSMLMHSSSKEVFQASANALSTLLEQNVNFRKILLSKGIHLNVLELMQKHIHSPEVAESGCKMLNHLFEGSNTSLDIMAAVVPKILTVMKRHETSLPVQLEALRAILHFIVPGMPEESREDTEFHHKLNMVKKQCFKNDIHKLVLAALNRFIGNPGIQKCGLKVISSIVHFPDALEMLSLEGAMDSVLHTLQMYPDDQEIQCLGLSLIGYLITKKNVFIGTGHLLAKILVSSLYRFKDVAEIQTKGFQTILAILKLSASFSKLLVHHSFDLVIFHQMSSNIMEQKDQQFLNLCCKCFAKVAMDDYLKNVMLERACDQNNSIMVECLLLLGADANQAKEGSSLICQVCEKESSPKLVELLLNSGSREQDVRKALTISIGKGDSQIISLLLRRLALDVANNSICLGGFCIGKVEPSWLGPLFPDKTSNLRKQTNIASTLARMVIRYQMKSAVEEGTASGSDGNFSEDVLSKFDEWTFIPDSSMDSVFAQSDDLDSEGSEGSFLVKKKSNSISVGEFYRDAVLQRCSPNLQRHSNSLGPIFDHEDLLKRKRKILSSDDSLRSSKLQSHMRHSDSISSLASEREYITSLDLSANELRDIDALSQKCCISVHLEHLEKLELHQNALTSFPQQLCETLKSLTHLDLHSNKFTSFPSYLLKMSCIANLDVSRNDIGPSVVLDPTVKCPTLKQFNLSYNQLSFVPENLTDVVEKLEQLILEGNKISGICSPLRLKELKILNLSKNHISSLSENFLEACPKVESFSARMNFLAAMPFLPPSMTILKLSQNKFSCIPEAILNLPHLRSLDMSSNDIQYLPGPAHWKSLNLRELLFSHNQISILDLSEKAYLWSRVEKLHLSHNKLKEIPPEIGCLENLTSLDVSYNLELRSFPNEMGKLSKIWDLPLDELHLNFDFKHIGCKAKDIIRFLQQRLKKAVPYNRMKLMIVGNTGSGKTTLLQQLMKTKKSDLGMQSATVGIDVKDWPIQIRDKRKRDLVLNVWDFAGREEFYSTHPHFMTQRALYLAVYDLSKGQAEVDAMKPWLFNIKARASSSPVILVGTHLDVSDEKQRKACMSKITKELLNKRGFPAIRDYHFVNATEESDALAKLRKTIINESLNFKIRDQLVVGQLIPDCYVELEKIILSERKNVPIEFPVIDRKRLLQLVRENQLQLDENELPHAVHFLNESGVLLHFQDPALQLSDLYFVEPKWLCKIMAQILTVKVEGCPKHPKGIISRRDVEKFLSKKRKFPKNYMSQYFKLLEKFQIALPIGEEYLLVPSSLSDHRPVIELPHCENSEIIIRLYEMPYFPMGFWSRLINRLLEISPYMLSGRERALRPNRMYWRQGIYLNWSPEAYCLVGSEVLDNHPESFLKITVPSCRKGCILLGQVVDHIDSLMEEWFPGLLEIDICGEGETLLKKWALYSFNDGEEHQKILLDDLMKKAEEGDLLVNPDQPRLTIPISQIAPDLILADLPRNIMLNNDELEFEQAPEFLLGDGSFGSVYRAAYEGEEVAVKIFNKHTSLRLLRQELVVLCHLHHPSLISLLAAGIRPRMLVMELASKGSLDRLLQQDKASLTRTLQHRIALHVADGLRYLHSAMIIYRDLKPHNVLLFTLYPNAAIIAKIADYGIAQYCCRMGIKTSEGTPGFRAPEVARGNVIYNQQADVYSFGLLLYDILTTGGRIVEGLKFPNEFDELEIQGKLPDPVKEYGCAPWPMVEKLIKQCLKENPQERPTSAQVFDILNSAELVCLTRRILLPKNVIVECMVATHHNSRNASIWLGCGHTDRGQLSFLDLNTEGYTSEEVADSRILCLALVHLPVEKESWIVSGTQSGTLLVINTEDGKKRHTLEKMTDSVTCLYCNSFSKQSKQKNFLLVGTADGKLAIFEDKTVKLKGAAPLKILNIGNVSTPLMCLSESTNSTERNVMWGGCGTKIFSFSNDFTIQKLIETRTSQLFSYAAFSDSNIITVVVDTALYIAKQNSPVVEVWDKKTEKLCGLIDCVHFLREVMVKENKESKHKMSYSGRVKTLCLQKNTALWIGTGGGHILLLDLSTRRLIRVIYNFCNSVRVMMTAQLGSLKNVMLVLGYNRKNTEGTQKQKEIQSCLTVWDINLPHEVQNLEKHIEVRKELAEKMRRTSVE

This assay concerns the target human LRRK2 kinase (Homo sapiens, UniProt Q5S007). Particulars: LRRK2, ADP-Glo, ATP 10 μM, 60 minutes at 25° C. Background: ADP-Glo turns the ADP formed in a reaction into a luminescent signal.
Method: Assay kits from Promega™ Corporation were used according to instructions and adapted as outlined herein. […] The kinase reaction was performed with kinase reaction buffer (40 mM Tris base pH 7.4, 20 mM MgCl2, 0.5 mM dithiothreitol), 0.1 mg/ml bovine serum albumin, distilled H2O). […] In brief, the kinase reactions were started by addition of ATP to the kinase reaction mixture. The resulting mixture was incubated for 60 minutes at 25° C., and then stopped by adding 5 μl of ADP-Glo™ reagent. After incubation at room temperature in the dark for 40 minutes, 10 μl of kinase detection reagent was added per well, and the mixture was incubated for 10 minutes. […] Positive and negative controls were performed in 0.5% DMSO in the presence and absence of LRRK2 kinases. Curve fitting and data presentations were performed using GraphPad Prism version 5.0 (GraphPad Software, Inc.).
Usually IC50 stands for the point on the concentration scale where inhibition reaches its midpoint. Read a low IC50 as higher potency. In the case of `CCCNc1nc(Nc2ccc(S(C)(=O)=O)cc2OC)nc2[nH]cc(Cl)c12` [Compound 8, 5-chloro-N2-(2-methoxy-4-(methylsulfonyl)phenyl)-N4-propyl-7H-pyrrolo[2,3-d]pyrimidine-2,4-diamine], the IC50 is 0.01 to 0.1 µM.

Compound `CNc1nc(Nc2ccc(S(C)(=O)=O)cc2OC)nc2[nH]cc(Cl)c12` [Compound 13, 5-chloro-N2-(2-methoxy-4-(methylsulfonyl)phenyl)-N4-methyl-7H-pyrrolo[2,3-d]pyrimidine-2,4-diamine] yielded an IC50 below 0.01 µM. As for `CS(=O)(=O)CCNc1nc(Nc2ccc(C(=O)N3CCOCC3)c3c2OCCO3)nc2[nH]cc(Cl)c12` [Compound 70, (8-((5-chloro-4-((2-(methylsulfonyl)ethyl)amino)-7H-pyrrolo[2,3-d]pyrimidin-2-yl)amino)-2,3-dihydrobenzo[b][1,4]dioxin-5-yl)(morpholino)methanone], the figure is below 0.01 µM; as for `CC[C@@H](C)Nc1nc(Nc2ccc(S(=O)(=O)N3CCOCC3)cc2OC)nc2[nH]cc(Cl)c12` [Compound 47, (R)—N4-(sec-butyl)-5-chloro-N2-(2-methoxy-4-(morpholinosulfonyl)phenyl)-7H-pyrrolo[2,3-d]pyrimidine-2,4-diamine], 0.1 to 1 µM.

Compound `COc1cc(S(=O)(=O)N2CCOCC2)ccc1Nc1nc(NC2CCCC2)c2c(Cl)c[nH]c2n1` [Compound 55, 5-chloro-N4-cyclopentyl-N2-(2-methoxy-4-(morpholinosulfonyl)phenyl)-7H-pyrrolo[2,3-d]pyrimidine-2,4-diamine] registered an IC50 of 0.1 to 1 µM.

As for `CCNc1nc(Nc2ccc(P3(=O)CCN(C(C)=O)CC3)cc2OC)nc2[nH]cc(Cl)c12` [Compound 98], the 50% inhibitory concentration (IC50) was below 0.01 µM. In the case of `COc1cc(S(=O)(=O)N2CCC(N3CCOCC3)CC2)ccc1Nc1nc(NC(C)C)c2c(Cl)c[nH]c2n1` [Compound 87, 5-chloro-N4-isopropyl-N2-(2-methoxy-4-((4-morpholinopiperidin-1-yl)sulfonyl)phenyl)-7H-pyrrolo[2,3-d]pyrimidine-2,4-diamine] it was 0.1 to 1 µM. Regarding `CNc1nc(Nc2ccc(S(=O)(=O)N3CCOCC3)cc2OC)nc2[nH]cc(Cl)c12` [Compound 11, 5-chloro-N2-(2-methoxy-4-(morpholinosulfonyl)phenyl)-N4-methyl-7H-pyrrolo[2,3-d]pyrimidine-2,4-diamine], the IC50 is below 0.01 µM. For the compound `CNc1nc(Nc2ccc(C(=O)N3CCC(N4CCOCC4)CC3)c3c2OCCO3)nc2[nH]cc(Cl)c12` [Compound 10, (8-((5-chloro-4-(methylamino)-7H-pyrrolo[2,3-d]pyrimidin-2-yl)amino)-2,3-dihydrobenzo[b][1,4]dioxin-5-yl)(4-morpholinopiperidin-1-yl)methanone], the IC50 is below 0.01 µM.

Regarding `CCNc1nc(Nc2ccc(C(=O)N3CCOCC3)c3c2OCC3)nc2[nH]cc(Cl)c12` [Compound 101, (7-((5-chloro-4-(ethylamino)-7H-pyrrolo[2,3-d]pyrimidin-2-yl)amino)-2,3-dihydrobenzofuran-4-yl)(morpholino)methanone], the IC50 was below 0.01 µM. As for `CC(C)Nc1nc(Nc2ccc(C(=O)N3CCC(N4CCOCC4)CC3)c3c2OCCO3)nc2[nH]cc(Cl)c12` [Compound 88], the figure is 0.01 to 0.1 µM; as for `COc1cc(P2(=O)CCN(C3CC3)CC2)ccc1Nc1nc(NC2CCCC2)c2c(Cl)c[nH]c2n1` [Compound 78, 4-(4-((5-chloro-4-(cyclopentylamino)-7H-pyrrolo[2,3-d]pyrimidin-2-yl)amino)-3-methoxyphenyl)-1-cyclopropyl-1,4-azaphosphinane 4-oxide], 0.01 to 0.1 µM. `CCCNc1nc(Nc2ccc(P3(=O)CCN(C4CC4)CC3)cc2OC)nc2[nH]cc(Cl)c12` [Compound 99, 4-(4-((5-chloro-4-(propylamino)-7H-pyrrolo[2,3-d]pyrimidin-2-yl)amino)-3-methoxyphenyl)-1-cyclopropyl-1,4-azaphosphinane 4-oxide]: the IC50 was 0.01 to 0.1 µM.

The compound `COc1cc(S(C)(=O)=O)ccc1Nc1nc(NCC2CCC2)c2c(Cl)c[nH]c2n1` [Compound 66, 5-chloro-N4-(cyclobutylmethyl)-N2-(2-methoxy-4-(methylsulfonyl)phenyl)-7H-pyrrolo[2,3-d]pyrimidine-2,4-diamine] had a half-maximal inhibitory concentration (IC50) of 0.1 to 1 µM. Consider `COc1cc(S(=O)(=O)N2CCOCC2)ccc1Nc1nc(NC2CCOCC2)c2c(Cl)c[nH]c2n1` [Compound 62, 5-chloro-N2-(2-methoxy-4-(morpholinosulfonyl)phenyl)-N4-(tetrahydro-2H-pyran-4-yl)-7H-pyrrolo[2,3-d]pyrimidine-2,4-diamine], for which the IC50 was below 0.01 µM. For `COc1cc(S(C)(=O)=O)ccc1Nc1nc(NC2CCC2)c2c(Cl)c[nH]c2n1` [Compound 29, 5-chloro-N4-cyclobutyl-N2-(2-methoxy-4-(methylsulfonyl)phenyl)-7H-pyrrolo[2,3-d]pyrimidine-2,4-diamine], the IC50 fell in the range of 0.01 to 0.1 µM. In the case of `COc1cc(S(C)(=O)=O)ccc1Nc1nc(NCC2CC2)c2c(Cl)c[nH]c2n1` [Compound 64, 5-chloro-N4-(cyclopropylmethyl)-N2-(2-methoxy-4-(methylsulfonyl)phenyl)-7H-pyrrolo[2,3-d]pyrimidine-2,4-diamine] it was 0.01 to 0.1 µM; in that of `CCCNc1nc(Nc2ccc(P3(=O)CCN(C(C)=O)CC3)cc2OC)nc2[nH]cc(Cl)c12` [Compound 100, 1-(4-(4-((5-chloro-4-(propylamino)-7H-pyrrolo[2,3-d]pyrimidin-2-yl)amino)-3-methoxyphenyl)-4-oxido-1,4-azaphosphinan-1-yl)ethan-1-one], 0.01 to 0.1 µM.

The compound `COc1cc(P2(=O)CCN(C3CCOCC3)CC2)ccc1Nc1nc(NC2CCCC2)c2c(Cl)c[nH]c2n1` [Compound 79] gave an IC50 of 0.01 to 0.1 µM.

`O=C(c1ccc(Nc2nc(NC3CCC3)c3c(Cl)c[nH]c3n2)c2c1OCCO2)N1CCOCC1` [Compound 30, (8-((5-chloro-4-(cyclobutylamino)-7H-pyrrolo[2,3-d]pyrimidin-2-yl)amino)-2,3-dihydrobenzo[b][1,4]dioxin-5-yl)(morpholino)methanone]: the IC50 is below 0.01 µM.

`COc1cc(P2(=O)CCN(C3CC3)CC2)ccc1Nc1nc(NC2CCC2)c2c(Cl)c[nH]c2n1` [Compound 104, 4-(4-((5-chloro-4-(cyclobutylamino)-7H-pyrrolo[2,3-d]pyrimidin-2-yl)amino)-3-methoxyphenyl)-1-cyclopropyl-1,4-azaphosphinane 4-oxide] came in with an IC50 of 0.01 to 0.1 µM. With `COc1cc(S(=O)(=O)N2CCOCC2)ccc1Nc1nc(N[C@H]2CCOC2)c2c(Cl)c[nH]c2n1` [Compound 60, (S)-5-chloro-N2-(2-methoxy-4-(morpholinosulfonyl)phenyl)-N4-(tetrahydrofuran-3-yl)-7H-pyrrolo[2,3-d]pyrimidine-2,4-diamine], the IC50 was 0.01 to 0.1 µM. Take `CCNc1nc(Nc2ccc(P3(=O)CCN(C4CC4)CC3)cc2OC)nc2[nH]cc(Cl)c12` [Compound 84, 4-(4-((5-chloro-4-(ethylamino)-7H-pyrrolo[2,3-d]pyrimidin-2-yl)amino)-3-methoxyphenyl)-1-cyclopropyl-1,4-azaphosphinane 4-oxide]: the IC50 was in the range of 0.01 to 0.1 µM.

Consider `O=C(c1ccc(Nc2nc(NCC3CCCC3)c3c(Cl)c[nH]c3n2)c2c1OCCO2)N1CCOCC1` [Compound 46, (8-((5-chloro-4-((cyclopentylmethyl)amino)-7H-pyrrolo[2,3-d]pyrimidin-2-yl)amino)-2,3-dihydrobenzo[b][1,4]dioxin-5-yl)(morpholino)methanone], for which the IC50 lay within 0.1 to 1 µM. For the compound `CNc1nc(Nc2ccc(C(=O)N3CCOCC3)c3c2OCCO3)nc2[nH]cc(Cl)c12` [Compound 14, (8-((5-chloro-4-(methylamino)-7H-pyrrolo[2,3-d]pyrimidin-2-yl)amino)-2,3-dihydrobenzo[b][1,4]dioxin-5-yl)(morpholino)methanone], the IC50 is below 0.01 µM. `O=C(c1ccc(Nc2nc(NC3CC3)c3c(Cl)c[nH]c3n2)c2c1OCCO2)N1CCOCC1` [Compound 27, (8-((5-chloro-4-(cyclopropylamino)-7H-pyrrolo[2,3-d]pyrimidin-2-yl)amino)-2,3-dihydrobenzo[b][1,4]dioxin-5-yl)(morpholino)methanone] had an IC50 below 0.01 µM. The compound `CNc1nc(Nc2ccc(C(=O)N3CCC(N4CCOCC4)CC3)c3c2OCC3)nc2[nH]cc(Cl)c12` [Compound 86, (7-((5-chloro-4-(methylamino)-7H-pyrrolo[2,3-d]pyrimidin-2-yl)amino)-2,3-dihydrobenzofuran-4-yl)(4-morpholinopiperidin-1-yl)methanone] showed a half-inhibitory concentration (IC50) below 0.01 µM. Take `COc1cc(S(C)(=O)=O)ccc1Nc1nc(NC2CCCC2)c2c(Cl)c[nH]c2n1` [Compound 57, 5-chloro-N4-cyclopentyl-N2-(2-methoxy-4-(methylsulfonyl)phenyl)-7H-pyrrolo[2,3-d]pyrimidine-2,4-diamine]: the IC50 fell in the range of 0.1 to 1 µM.

In turn, `COc1cc(S(=O)(=O)N2CCOCC2)ccc1Nc1nc(NCC2CCCC2)c2c(Cl)c[nH]c2n1` [Compound 45, 5-chloro-N4-(cyclopentylmethyl)-N2-(2-methoxy-4-(morpholinosulfonyl)phenyl)-7H-pyrrolo[2,3-d]pyrimidine-2,4-diamine] registered an IC50 of 0.1 to 1 µM. The compound `COc1cc(S(=O)(=O)N2CCC(N3CCOCC3)CC2)ccc1Nc1nc(NC2CCCC2)c2c(Cl)c[nH]c2n1` [Compound 56, 5-chloro-N4-cyclopentyl-N2-(2-methoxy-4-((4-morpholinopiperidin-1-yl)sulfonyl)phenyl)-7H-pyrrolo[2,3-d]pyrimidine-2,4-diamine] came in with a concentration for half-maximal inhibition (IC50) of 0.01 to 0.1 µM.

Turning to `CCNc1nc(Nc2ccc(S(C)(=O)=O)cc2OC)nc2[nH]cc(Cl)c12` [Compound 16, 5-chloro-N4-ethyl-N2-(2-methoxy-4-(methylsulfonyl)phenyl)-7H-pyrrolo[2,3-d]pyrimidine-2,4-diamine], the IC50 is 0.01 to 0.1 µM. `COc1cc(S(C)(=O)=O)ccc1Nc1nc(NC2CCCCC2)c2c(Cl)c[nH]c2n1` [Compound 59, 5-chloro-N4-cyclohexyl-N2-(2-methoxy-4-(methylsulfonyl)phenyl)-7H-pyrrolo[2,3-d]pyrimidine-2,4-diamine] gave an IC50 of 0.1 to 1 µM.
